Experimental data reported in patent US10889573B2, “Anthelmintic quinoline-3-carboxamide derivatives” (Bayer Animal Health GMBH, priority 2016, dated 2021).
pEC50: −log10 of the molar value.

Experiments:
[1] = test system: Litomosoides sigmodontis third-stage larvae; settings: 72 h, read-out: EC50 (reduction of motility)
Method: In Vitro Assay 5: Litomosoides sigmodontis (LTMOSI L3)
10 Litomosoides sigmodontis third-stage larvae, which were freshly isolated from the pleural cavity of an infected rodent, were added to wells of a microtitre plate containing a nutrient medium and the test compound in DMSO. Compounds were tested in concentration-response assay in duplicate. Larvae exposed to DMSO and no test compounds were used as negative controls. Larvae were evaluated after 72 h of incubation with the compound. Efficacy was determined as the reduction of motility in comparison to the negative control. Based on the evaluation of a wide concentration range, concentration-response curves as well as EC50-values were calculated.

[2] = test system: Dirofilaria immitis microfilariae; experiment: In vitro assay 3: Dirofilaria immitis microfilariae (DIROIM L1), motility; settings: 72 h, read-out: EC50 (reduction of motility), 72 h incubation
[3] = target: C. elegans Slo-1a (Caenorhabditis elegans, UniProt Q95V25); settings: pE50 (negative decadic logarithm of EC50), CHO cells expressing C. elegans Slo-1a, voltage sensitive dye
Method: In Vitro Assay 1: C. elegans Slo-1a—Action at a Recombinant C. elegans Cell Line
Cells were cultured at 37° C. and 5% CO2 in MEMalpha with Gutamax I (Invitrogen, Nr.: 32571), supplemented with 10% (v/v) heat inactivated fetal bovine serum (Invitrogen, Nr.: 10500), G418 (1 mg/ml, Invitrogen, Nr.: 10131). Cells were detached using Accutase (Sigma, Nr.: A6964).
Membrane Potential Measurements
Laboratory compound testing was performed on 384-well microtiter plates (MTPs, Greiner, Nr.: 781092). 8000 cells/well were plated onto 384-well MTPs and cultured for 20 to 24 hours at 37° C. and 5% CO2. After removal of the cell culture medium, the cells were washed once with tyrode (150 mM NaCl, 0.3 mM KCl, 2 mM CaCl2, 1 mM MgCl2, 0.8 mM NaH2PO4, 5 mM Glucose, 28 mM Hepes, pH 7.4) and then loaded with the voltage sensitive dye of the Membrane Potential Assay Kit diluted in tyrode for 1 h at room temperature.
After starting the measurement of fluorescence using a FLIPR Tetra (Molecular Devices, Exc. 510-545 nm, Emm. 565-625 nm), test compounds were added followed by the addition of KCl tyrode (final assay concentration: 70 mM KCl, 2 mM CaCl2, 1 mM MgCl2, 0.8 mM NaH2PO4, 5 mM Glucose, 28 mM Hepes, pH 7.4, including the voltage sensitive dye). The measurement was completed after 7 minutes.
The data were evaluated by using the ActivityBase XLfit software (IDBS) for curve fitting and calculation of the half-maximal effective concentration (EC50) and are reported as negative decadic logarithm (pE50).

[4] = test system: Dirofilaria immitis third-stage larvae; experiment: In vitro assay 4: Dirofilaria immitis (DIROIM L4), motility; settings: 72 h, read-out: EC50 (reduction of motility)
[5] = test system: Haemonchus contortus; settings: 120 h, read-out: activity (larval mortality)
Method: In Vitro Assay 7: Haemonchus contortus (HAEMCO L3)
Solvent: dimethyl sulfoxide
Approximately 40 larvae of the red stomach worm (Haemonchus contortus) are transferred into a test tube containing compound solution.
After 5 days the percentage of larval mortality is recorded. 100% efficacy means all larvae are killed, 0% efficacy means no larvae are killed.

[6] = test system: Nippostrongylus brasiliensis; experiment: In vitro assay 2: Nippostrongylus brasiliensis (NIPOBR), acetylcholine esterase readout; settings: read-out: activity (reduction of AChE compared to negative control); for inhibition at 1 µg/mL: 1 μg/ml; for inhibition at 10 µg/mL: 10 μg/ml
Method in brief: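 Adult worms, washed in saline with antibiotics/antimycotic, were incubated in medium with compound (DMSO stock) at 10 μg/ml (10 ppm) or 1 μg/ml (1 ppm). Acetylcholine esterase activity in a medium aliquot was measured against a negative control as the anthelmintic readout.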

[7] = test system: Cooperia curticei; settings: Cooperia curticei, 120 h, read-out: activity (larval mortality)
Method: In Vitro Assay 6: Cooperia curticei (COOPCU L3)
Solvent: dimethyl sulfoxide
Approximately 40 nematode larvae (Cooperia curticei) are transferred into a test tube containing the compound solution.
After 5 days percentage of larval mortality is recorded. 100% efficacy means all larvae are killed; 0% efficacy means no larvae are killed.

[8] = log P by HPLC on reversed phase columns (Method L0); settings: for logP (Method L0)^[a]: HPLC on reversed phase columns
Method: Measurement of log P values was performed according to EEC directive 79/831 Annex V.A8 by HPLC (High Performance Liquid Chromatography) on reversed phase columns with the following methods: • ^[a] log P value is determined by measurement of LC-UV, in an acidic range, with 0.1% formic acid in water and acetonitrile as eluent (linear gradient from 10% acetonitrile to 95% acetonitrile). • ^[b] log P value is determined by measurement of LC-UV, in a neutral range, with 0.001 molar ammonium acetate solution in water and acetonitrile as eluent (linear gradient from 10% acetonitrile to 95% acetonitrile).
Calibration was done with straight-chain alkan-2-ones (with 3 to 16 carbon atoms) with known log P values (measurement of log P values using retention times with linear interpolation between successive alkanones).

Chain of C. elegans Slo-1a (Q95V25 whole entry): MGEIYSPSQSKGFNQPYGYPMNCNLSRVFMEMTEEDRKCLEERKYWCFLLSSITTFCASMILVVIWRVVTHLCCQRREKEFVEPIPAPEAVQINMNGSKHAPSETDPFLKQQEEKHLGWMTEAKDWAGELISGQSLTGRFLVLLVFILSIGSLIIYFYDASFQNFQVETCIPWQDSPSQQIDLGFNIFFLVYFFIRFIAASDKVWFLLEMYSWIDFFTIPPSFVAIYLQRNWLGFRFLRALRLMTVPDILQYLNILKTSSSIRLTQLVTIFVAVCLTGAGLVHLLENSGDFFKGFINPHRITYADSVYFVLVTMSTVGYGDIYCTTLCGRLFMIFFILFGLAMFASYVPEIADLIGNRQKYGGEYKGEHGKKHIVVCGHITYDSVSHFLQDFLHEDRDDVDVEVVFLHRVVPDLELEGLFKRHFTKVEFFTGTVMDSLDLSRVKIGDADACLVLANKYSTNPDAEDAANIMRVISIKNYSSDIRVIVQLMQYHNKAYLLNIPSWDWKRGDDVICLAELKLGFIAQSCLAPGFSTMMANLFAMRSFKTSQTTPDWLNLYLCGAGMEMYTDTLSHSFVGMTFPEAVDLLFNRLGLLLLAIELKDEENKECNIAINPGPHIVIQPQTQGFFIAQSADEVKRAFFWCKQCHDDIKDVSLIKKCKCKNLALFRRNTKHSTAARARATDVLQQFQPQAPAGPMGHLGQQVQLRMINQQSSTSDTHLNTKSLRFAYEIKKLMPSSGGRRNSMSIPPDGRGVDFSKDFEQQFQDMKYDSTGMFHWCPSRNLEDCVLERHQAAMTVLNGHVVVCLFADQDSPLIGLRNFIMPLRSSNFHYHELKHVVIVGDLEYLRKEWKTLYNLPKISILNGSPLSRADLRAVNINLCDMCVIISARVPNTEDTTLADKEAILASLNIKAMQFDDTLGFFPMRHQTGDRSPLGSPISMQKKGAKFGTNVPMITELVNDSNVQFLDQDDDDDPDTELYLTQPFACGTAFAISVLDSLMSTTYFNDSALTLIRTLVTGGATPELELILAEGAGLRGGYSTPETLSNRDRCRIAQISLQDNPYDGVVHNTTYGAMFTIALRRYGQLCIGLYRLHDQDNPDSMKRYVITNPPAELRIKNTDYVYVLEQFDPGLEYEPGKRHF

| Compound | EC50 [1] [mg/L] | EC50 [2] [mg/L] | pEC50 [3] | EC50 [4] [mg/L] | mortality at 20 ppm [5] [%] | inhibition at 1 µg/mL [6] [%] | inhibition at 10 µg/mL [6] [%] | mortality at 4 ppm [5] [%] | mortality at 4 ppm [7] [%] | mortality at 20 ppm [7] [%] | chromatographic logP [8] | logP (Method L0)^[a] [8] |
| --- | --- | --- | --- | --- | --- | --- | --- | --- | --- | --- | --- | --- |
| O=C(N[C@H]1CCc2ccccc21)c1cnc2c(-c3cc(Cl)cc(Cl)c3)cccc2c1Cl [Example 3, 4-chloro-8-(3,5-dichlorophenyl)-N-[(1S)-2,3-dihydro-1H-inden-1-yl]quinoline-3-carboxamide] | < 1 | < 1 | 7.50 to 8.50 | < 1 |  |  |  |  |  |  |  |  |
| Cc1cc(-c2cc(Cl)cc(Cl)c2)c2ncc(C(=O)N[C@H]3CCOc4ccccc43)c(N(C)C)c2c1 [Example 12] | < 0.1 | < 0.1 | > 8.50 | < 0.1 | 80 | > 80 | > 80 |  |  |  |  |  |
| O=C(N[C@H]1CCOc2ccccc21)c1cnc2c(-c3cc(Cl)cc(Cl)c3)cccc2c1N1CCOCC1 [Example 17] | < 0.1 | < 0.1 | > 8.50 | < 0.1 | 100 | > 80 | > 80 | 100 | 100 | 100 |  |  |
| CNc1c(C(=O)N[C@H]2CCOc3ccccc32)cnc2c(-c3cc(Cl)cc(Cl)c3)cccc12 [Example 24] | < 0.1 | < 0.1 | > 8.50 | < 0.1 | 100 | > 80 | > 80 | 100 | 100 | 100 |  |  |
| CN(C)c1c(C(=O)N[C@H]2CCOc3ccccc32)cnc2c(-c3cc(Cl)ccc3F)cccc12 [Example 37] | < 0.1 | < 0.1 | > 8.50 | < 0.1 | 100 | > 80 | > 80 | 100 | 100 | 100 |  |  |
| O=C(N[C@H]1CCOc2ccccc21)c1cnc2c(-c3cccc(Cl)c3Cl)cccc2c1N1CCOCC1 [Example 52, 8-(2,3-dichlorophenyl)-N-[(4S)-3,4-dihydro-2H-chromen-4-yl]-4-(morpholin-4-yl)quinoline-3-carboxamide] | < 0.1 | < 0.1 | > 8.50 | < 0.1 | 100 | > 80 | > 80 | 100 | 100 | 100 |  |  |
| COc1c(F)ccc(-c2cccc3c(N4CCOCC4)c(C(=O)N[C@H]4CCOc5ccccc54)cnc23)c1F [Example 53] | < 0.1 | < 0.1 | > 8.50 | < 0.1 | 100 | > 80 | > 80 | 80 | 100 | 100 |  |  |
| CN(C)c1c(C(=O)N[C@H]2CCOc3ccccc32)cnc2c(-c3cccc4[nH]ccc34)cccc12 [Example 73] | < 1 | < 0.1 | 7.50 to 8.50 | < 0.1 |  | > 80 | > 80 |  |  |  |  |  |
| CCOc1c(C(=O)N[C@H]2CCc3ccccc32)cnc2c(-c3cc(Cl)cc(Cl)c3)cccc12 [Example 134, 8-(3,5-dichlorophenyl)-N-[(1S)-2,3-dihydro-1H-inden-1-yl]-4-ethoxyquinoline-3-carboxamide] | < 0.1 | < 0.1 |  | < 0.1 | 100 | > 80 | > 80 | 100 | 100 | 100 |  |  |
| O=C(N[C@H]1CCOc2ccccc21)c1cnc2c(-c3cc(Cl)cc(Cl)c3)cccc2c1N1CCC1 [Example 135, 4-(azetidin-1-yl)-8-(3,5-dichlorophenyl)-N-[(4S)-3,4-dihydro-2H-chromen-4-yl]quinoline-3-carboxamide] |  | < 1 | > 8.50 |  | 100 | > 80 | > 80 | 90 |  | 80 | 1.9 |  |
| CCOC(=O)CN(C)c1c(C(=O)N[C@H]2CCOc3ccccc32)cnc2c(-c3cc(Cl)cc(Cl)c3)cccc12 [Example 137, ethyl N-{8-(3,5-dichlorophenyl)-3-[(4S)-3,4-dihydro-2H-chromen-4-ylcarbamoyl]quinolin-4-yl}-N-methylglycinate] |  | < 1 | > 8.50 |  | 80 | > 80 | > 80 |  |  |  | 4.8 |  |
| CN(C)c1c(C(=O)N[C@H]2CCOc3ccccc32)cnc2c(-c3cccc(Cl)c3)c(F)ccc12 [Example 141, 8-(3-chlorophenyl)-N-[(4S)-3,4-dihydro-2H-chromen-4-yl]-4-(dimethyl-amino)-7-fluoroquinoline-3-carboxamide] | < 0.1 | < 0.1 | > 8.50 | < 0.1 |  |  | > 80 |  |  |  |  |  |
| CN(CC(=O)O)c1c(C(=O)N[C@H]2CCOc3ccccc32)cnc2c(-c3cc(Cl)cc(Cl)c3)cccc12 [Example 150, N-{8-(3,5-dichlorophenyl)-3-[(4S)-3,4-dihydro-2H-chromen-4-ylcarbamoyl]quinolin-4-yl}-N-methylglycine] |  | < 0.1 | 7.50 to 8.50 | < 1 | 90 | > 80 |  | 80 |  | 100 | 3.1 |  |
| O=C(N[C@H]1CCOc2ccccc21)c1cnc2c(-c3cc(Cl)cc(Cl)c3)cccc2c1-n1ccnn1 [Example 188, 8-(3,5-dichlorophenyl)-N-[(4S)-3,4-dihydro-2H-chromen-4-yl]-4-(1H-1,2,3-triazol-1-yl)quinoline-3-carboxamide] |  | < 0.1 | 7.50 to 8.50 |  |  |  |  |  |  |  | 4.5 |  |
| O=C(N[C@H]1CCOc2ccccc21)c1cnc2c(-c3cc(Cl)cc(Cl)c3)cccc2c1-n1nccn1 [Example 189, 8-(3,5-dichlorophenyl)-N-[(4S)-3,4-dihydro-2H-chromen-4-yl]-4-(2H-1,2,3-triazol-2-yl)quinoline-3-carboxamide] |  | < 0.1 | > 8.50 |  |  | > 80 |  |  |  |  | 5 |  |
| CN(c1c(C(=O)N[C@H]2CCOc3ccccc32)cnc2c(-c3cccc(Cl)c3Cl)cccc12)C1COC1 [Example 331, 8-(2,3-dichlorophenyl)-N-[(4S)-3,4-dihydro-2H-chromen-4-yl]-4-[methyl(oxetan-3-yl)amino]-quinoline-3-carboxamide] |  | < 0.1 | > 8.50 | < 0.1 | 100 | > 80 |  |  |  | 90 | 3.14 |  |
| CCc1cc(Cl)cc(-c2cccc3c(CC)c(C(=O)N[C@H]4CCOc5ccccc54)cnc23)c1 [Example 351, 8-(3-chloro-5-ethylphenyl)-N-[(4S)-3,4-dihydro-2H-chromen-4-yl]-4-ethylquinoline-3-carboxamide] |  | < 0.1 | > 8.50 | < 0.1 |  |  |  |  |  |  | 5.1 |  |
| CCSc1c(C(=O)N[C@H]2CCOc3ccccc32)cnc2c(-c3cccc(Cl)c3Cl)cccc12 [Example 366] |  |  |  |  |  |  |  |  |  |  |  | 4.79 |
| CCSc1c(C(=O)N[C@H]2CCOc3ccccc32)cnc2c(-c3cc(Cl)cc(Cl)c3)cccc12 [Example 367] |  |  |  |  |  |  |  |  |  |  |  | 5.48 |
| CC[S+]([O-])c1c(C(=O)N[C@H]2CCOc3ccccc32)cnc2c(-c3cccc(Cl)c3Cl)cccc12 (stereo partly shown) [Example 368] |  |  |  |  |  |  |  |  |  |  |  | 3.76 |
| CC[S+]([O-])c1c(C(=O)N[C@H]2CCOc3ccccc32)cnc2c(-c3cc(Cl)cc(Cl)c3)cccc12 (stereo partly shown) [Example 370] |  |  |  |  |  |  |  |  |  |  |  | 4.44 |
| CCS(=O)(=O)c1c(C(=O)N[C@H]2CCOc3ccccc32)cnc2c(-c3cc(Cl)cc(Cl)c3)cccc12 [Example 371] |  |  |  |  |  |  |  |  |  |  |  | 4.54 |
| COc1c(C(=O)N[C@H]2CCOc3ccccc32)cnc2c(-c3cc(Cl)cc(Cl)c3)cccc12 [Example 373, 8-(3,5-dichlorophenyl)-N-[(4S)-3,4-dihydro-2H-chromen-4-yl]-4-methoxyquinoline-3-carboxamide] | < 1 |  | > 8.50 | < 1 | 100 | > 80 | > 80 | 100 | 100 | 100 |  |  |
| Cc1nc2c(-c3cccc(Cl)c3Cl)cccc2c(N(C)C)c1C(=O)N[C@H]1CCOc2ccccc21 [Example 523] |  |  |  |  |  |  |  |  |  |  |  | 2.11 |
| O=C(N[C@H]1CCOc2ccccc21)c1cnc2c(-c3cc(F)cc(F)c3F)c(F)ccc2c1N1CCOCC1 [Example 540] |  |  |  |  |  |  |  |  |  |  |  | 3.72 |
| CNc1c(C(=O)N[C@H]2CCOc3ccccc32)cnc2c(-c3cc(F)c(OC(F)F)c(F)c3)c(F)ccc12 [Example 547] |  |  |  |  |  |  |  |  |  |  |  | 1.81 |
| O=C(N[C@H]1CCOc2ccccc21)c1cnc2c(-c3cc(F)cc(F)c3F)c(Cl)ccc2c1N1CCOCC1 [Example 576] |  |  |  |  |  |  |  |  |  |  |  | 3.90 |
